Experiments:
[1] = target: T1, Serine/threonine-protein kinase Chk1 (Homo sapiens) (UniProt O14757); assay: Inhibition of CHK1 (unknown origin) at 10 uM
T1 sequence (whole entry): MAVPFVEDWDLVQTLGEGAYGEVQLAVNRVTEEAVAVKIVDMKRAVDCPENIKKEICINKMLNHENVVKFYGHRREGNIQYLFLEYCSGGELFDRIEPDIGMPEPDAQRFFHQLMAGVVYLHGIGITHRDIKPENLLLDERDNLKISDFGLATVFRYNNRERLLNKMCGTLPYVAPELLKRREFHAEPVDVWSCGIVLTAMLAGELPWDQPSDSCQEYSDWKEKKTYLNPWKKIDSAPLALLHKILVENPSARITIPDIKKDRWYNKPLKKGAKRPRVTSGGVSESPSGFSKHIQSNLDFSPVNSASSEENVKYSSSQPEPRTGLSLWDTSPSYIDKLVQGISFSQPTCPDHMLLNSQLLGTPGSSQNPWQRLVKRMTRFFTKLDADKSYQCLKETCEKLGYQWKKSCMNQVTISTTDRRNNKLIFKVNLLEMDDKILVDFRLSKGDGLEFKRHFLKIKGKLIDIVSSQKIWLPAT

[2] = target: Tyrosine-protein kinase CSK (Homo sapiens) (UniProt P41240); assay: Inhibition of CSK (unknown origin) at 10 uM
Sequence of Tyrosine-protein kinase CSK (Homo sapiens) (P41240 2-450 limits assumed): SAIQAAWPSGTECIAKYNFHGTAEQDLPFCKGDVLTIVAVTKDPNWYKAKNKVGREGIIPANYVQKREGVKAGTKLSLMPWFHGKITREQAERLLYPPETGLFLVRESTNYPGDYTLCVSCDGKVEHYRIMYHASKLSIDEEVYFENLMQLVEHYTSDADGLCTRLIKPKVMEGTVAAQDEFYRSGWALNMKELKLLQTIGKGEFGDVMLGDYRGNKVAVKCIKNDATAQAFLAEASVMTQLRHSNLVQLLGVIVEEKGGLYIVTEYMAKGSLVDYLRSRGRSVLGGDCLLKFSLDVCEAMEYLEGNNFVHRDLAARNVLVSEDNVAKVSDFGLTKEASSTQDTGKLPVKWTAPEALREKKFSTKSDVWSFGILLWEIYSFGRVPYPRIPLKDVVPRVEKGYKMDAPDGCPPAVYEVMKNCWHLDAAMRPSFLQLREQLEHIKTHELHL

[3] = target: Epithelial discoidin domain-containing receptor 1 (Homo sapiens) (UniProt Q08345); assay: Inhibition of DDR1 (unknown origin) at 10 uM
Sequence of Epithelial discoidin domain-containing receptor 1 (Homo sapiens) (Q08345 whole entry, the tested form may be a part): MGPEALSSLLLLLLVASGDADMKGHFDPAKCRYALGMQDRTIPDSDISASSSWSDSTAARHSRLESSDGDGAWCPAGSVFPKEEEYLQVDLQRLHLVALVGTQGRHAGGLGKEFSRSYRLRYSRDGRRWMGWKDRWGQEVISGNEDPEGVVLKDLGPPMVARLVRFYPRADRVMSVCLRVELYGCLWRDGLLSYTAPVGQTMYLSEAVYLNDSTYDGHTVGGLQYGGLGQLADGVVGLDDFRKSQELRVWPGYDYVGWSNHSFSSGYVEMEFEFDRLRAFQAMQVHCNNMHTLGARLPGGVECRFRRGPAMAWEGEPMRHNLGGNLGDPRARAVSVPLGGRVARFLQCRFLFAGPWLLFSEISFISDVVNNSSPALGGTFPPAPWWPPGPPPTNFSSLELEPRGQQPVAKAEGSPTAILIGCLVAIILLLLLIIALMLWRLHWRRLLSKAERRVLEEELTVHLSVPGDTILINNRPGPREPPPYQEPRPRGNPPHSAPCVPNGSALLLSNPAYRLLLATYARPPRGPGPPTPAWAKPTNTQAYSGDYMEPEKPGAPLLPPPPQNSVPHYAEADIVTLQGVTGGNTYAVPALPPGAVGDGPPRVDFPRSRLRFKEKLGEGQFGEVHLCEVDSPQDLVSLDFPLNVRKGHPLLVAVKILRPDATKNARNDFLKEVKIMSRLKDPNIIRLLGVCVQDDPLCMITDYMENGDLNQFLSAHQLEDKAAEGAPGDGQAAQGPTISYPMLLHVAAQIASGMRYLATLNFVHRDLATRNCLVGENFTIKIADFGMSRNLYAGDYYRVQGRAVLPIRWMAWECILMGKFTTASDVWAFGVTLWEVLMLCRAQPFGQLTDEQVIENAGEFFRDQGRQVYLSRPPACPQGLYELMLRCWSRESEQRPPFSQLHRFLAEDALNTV

[4] = target: Receptor tyrosine-protein kinase erbB-2 (Homo sapiens) (UniProt P04626); assay: Inhibition of ERBB2 (unknown origin) at 10 uM
[5] = target: T2, Inhibitor of nuclear factor kappa-B kinase subunit beta (Homo sapiens) (UniProt O14920); assay: Inhibition of IKKbeta (unknown origin) at 10 uM
T2 sequence (whole entry): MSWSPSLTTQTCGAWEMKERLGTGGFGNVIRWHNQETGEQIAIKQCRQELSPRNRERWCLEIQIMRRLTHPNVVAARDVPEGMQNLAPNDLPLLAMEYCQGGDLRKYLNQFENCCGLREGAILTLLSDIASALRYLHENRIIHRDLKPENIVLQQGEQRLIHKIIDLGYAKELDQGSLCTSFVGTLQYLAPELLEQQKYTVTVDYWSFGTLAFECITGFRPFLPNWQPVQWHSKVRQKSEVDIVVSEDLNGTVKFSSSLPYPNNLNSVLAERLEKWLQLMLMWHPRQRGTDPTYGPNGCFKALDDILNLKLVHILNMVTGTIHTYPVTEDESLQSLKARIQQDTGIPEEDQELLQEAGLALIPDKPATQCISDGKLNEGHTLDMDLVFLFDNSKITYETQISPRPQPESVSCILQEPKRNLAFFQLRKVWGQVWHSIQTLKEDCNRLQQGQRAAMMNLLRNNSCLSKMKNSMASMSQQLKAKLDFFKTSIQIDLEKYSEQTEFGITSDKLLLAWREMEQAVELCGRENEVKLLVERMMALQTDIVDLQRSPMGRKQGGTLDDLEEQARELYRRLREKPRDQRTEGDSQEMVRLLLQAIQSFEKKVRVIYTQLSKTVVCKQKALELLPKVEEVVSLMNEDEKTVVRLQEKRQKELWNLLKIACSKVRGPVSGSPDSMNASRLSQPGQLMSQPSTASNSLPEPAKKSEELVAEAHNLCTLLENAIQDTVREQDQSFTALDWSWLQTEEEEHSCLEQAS

[6] = target: Serine/threonine-protein kinase mTOR (Homo sapiens) (UniProt P42345); assay: Inhibition of mTOR (unknown origin) at 10 uM
[7] = target: Serine/threonine-protein kinase pim-1 (Homo sapiens) (UniProt P11309); assay: Inhibition of PIM1 (unknown origin) at 10 uM
Sequence of Serine/threonine-protein kinase pim-1 (Homo sapiens) (P11309 whole entry, looked up): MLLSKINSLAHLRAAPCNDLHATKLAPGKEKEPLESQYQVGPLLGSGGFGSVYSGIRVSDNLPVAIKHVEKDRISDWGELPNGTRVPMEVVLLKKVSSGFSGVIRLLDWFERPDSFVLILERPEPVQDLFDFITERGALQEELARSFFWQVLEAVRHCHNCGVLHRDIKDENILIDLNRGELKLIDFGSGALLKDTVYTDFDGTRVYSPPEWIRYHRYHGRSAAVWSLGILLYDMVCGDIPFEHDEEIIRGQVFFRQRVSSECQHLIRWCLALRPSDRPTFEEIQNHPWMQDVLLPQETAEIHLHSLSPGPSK

[8] = target: Serine/threonine-protein kinase PLK3 (Homo sapiens) (UniProt Q9H4B4); assay: Inhibition of PLK3 (unknown origin) at 10 uM
Sequence of Serine/threonine-protein kinase PLK3 (Homo sapiens) (Q9H4B4 whole entry, looked up): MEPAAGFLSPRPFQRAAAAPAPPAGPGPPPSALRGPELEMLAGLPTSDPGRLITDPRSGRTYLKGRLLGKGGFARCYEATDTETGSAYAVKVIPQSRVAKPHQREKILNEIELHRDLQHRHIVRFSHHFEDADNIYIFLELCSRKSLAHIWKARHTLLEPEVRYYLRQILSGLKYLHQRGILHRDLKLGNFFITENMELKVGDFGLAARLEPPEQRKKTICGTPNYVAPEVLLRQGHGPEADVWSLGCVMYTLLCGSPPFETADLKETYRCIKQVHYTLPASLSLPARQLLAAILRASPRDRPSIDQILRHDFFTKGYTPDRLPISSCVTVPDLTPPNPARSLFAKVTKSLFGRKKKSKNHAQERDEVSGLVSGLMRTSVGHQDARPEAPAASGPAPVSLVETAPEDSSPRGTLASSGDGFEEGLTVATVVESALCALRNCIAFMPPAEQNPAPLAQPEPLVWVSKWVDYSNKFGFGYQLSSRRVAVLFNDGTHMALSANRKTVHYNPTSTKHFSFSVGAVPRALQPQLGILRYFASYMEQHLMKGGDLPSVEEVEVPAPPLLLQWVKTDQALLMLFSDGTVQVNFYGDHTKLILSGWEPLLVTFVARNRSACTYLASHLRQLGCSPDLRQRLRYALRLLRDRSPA

[9] = target: Proto-oncogene tyrosine-protein kinase receptor Ret (Homo sapiens) (UniProt P07949); assay: Inhibition of RET (unknown origin) at 10 uM
Sequence of Proto-oncogene tyrosine-protein kinase receptor Ret (Homo sapiens) (P07949 whole entry): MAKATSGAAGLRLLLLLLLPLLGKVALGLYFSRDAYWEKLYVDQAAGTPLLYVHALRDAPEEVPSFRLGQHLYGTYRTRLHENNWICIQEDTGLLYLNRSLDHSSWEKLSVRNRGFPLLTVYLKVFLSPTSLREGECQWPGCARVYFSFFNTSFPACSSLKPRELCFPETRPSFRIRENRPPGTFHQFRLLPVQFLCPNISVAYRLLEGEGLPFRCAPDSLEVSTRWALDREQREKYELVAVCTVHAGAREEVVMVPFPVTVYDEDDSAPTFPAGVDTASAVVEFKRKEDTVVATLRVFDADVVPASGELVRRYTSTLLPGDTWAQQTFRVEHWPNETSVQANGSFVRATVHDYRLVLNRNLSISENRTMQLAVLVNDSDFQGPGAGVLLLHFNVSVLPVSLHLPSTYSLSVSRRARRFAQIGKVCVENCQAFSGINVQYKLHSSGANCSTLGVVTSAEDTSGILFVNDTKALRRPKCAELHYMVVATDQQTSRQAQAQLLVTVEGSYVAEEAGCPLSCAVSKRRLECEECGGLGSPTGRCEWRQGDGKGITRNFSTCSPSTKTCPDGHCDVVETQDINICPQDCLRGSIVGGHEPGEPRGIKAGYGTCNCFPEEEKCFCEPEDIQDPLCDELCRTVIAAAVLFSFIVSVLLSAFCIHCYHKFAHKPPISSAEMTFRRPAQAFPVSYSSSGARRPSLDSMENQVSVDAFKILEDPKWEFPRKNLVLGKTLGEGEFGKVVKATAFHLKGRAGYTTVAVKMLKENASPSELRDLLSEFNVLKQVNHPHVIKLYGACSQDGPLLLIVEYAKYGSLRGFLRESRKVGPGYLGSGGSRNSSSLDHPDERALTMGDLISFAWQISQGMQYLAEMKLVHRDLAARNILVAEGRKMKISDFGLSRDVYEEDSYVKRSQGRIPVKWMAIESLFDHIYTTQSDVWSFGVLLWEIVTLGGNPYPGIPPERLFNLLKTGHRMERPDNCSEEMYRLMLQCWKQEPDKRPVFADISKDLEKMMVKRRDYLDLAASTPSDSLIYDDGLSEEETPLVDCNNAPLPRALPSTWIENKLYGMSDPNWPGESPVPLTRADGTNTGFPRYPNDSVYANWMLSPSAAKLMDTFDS

[10] = target: Angiopoietin-1 receptor (Homo sapiens) (UniProt Q02763); assay: Inhibition of TIE2 (unknown origin) at 10 uM
Sequence of Angiopoietin-1 receptor (Homo sapiens) (Q02763 whole entry): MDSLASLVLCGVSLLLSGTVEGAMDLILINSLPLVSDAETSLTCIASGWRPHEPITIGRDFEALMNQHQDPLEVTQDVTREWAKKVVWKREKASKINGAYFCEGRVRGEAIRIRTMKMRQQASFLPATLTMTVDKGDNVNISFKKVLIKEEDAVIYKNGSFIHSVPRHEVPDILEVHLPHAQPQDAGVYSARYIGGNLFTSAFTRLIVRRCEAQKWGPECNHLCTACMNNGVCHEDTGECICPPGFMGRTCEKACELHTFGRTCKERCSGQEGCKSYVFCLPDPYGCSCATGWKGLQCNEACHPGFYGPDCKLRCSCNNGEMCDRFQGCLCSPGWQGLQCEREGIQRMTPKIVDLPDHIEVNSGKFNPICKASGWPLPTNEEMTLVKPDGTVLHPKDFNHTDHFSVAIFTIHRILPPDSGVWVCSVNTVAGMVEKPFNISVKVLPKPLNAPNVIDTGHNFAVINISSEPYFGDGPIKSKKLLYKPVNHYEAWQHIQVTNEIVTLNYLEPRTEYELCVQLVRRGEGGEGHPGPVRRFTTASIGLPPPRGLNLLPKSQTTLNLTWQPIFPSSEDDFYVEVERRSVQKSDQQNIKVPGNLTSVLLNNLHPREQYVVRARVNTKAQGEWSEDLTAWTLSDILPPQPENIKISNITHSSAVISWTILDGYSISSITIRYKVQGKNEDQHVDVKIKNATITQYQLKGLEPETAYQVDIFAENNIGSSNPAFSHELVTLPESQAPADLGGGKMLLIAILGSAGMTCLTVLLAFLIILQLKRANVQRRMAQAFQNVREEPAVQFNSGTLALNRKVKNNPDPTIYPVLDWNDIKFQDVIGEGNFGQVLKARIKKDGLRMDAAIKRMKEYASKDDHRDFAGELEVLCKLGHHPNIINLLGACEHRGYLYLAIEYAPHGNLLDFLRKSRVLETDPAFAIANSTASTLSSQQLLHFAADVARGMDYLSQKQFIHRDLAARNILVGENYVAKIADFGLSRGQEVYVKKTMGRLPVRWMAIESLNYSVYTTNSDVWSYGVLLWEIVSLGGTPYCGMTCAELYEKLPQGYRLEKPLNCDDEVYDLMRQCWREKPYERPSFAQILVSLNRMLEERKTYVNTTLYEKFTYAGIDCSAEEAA

[11] = target: Vascular endothelial growth factor receptor 2 (Homo sapiens) (UniProt P35968); assay: Inhibition of VEGFR2 (unknown origin) at 10 uM
[12] = target: Mitogen-activated protein kinase 8 (Homo sapiens, UniProt P45983); assay: Inhibition of JNK1 (unknown origin) expressed in HEK293 cells assessed as anisomycin-induced c-Jun phosphorylation at 10 uM incubated for 30 mins by Western blot analysis relative to anisomycin; type: cell-based; parameters: scale not given: the % may be the effect or the level left
[13] = target: RAC-alpha serine/threonine-protein kinase (Homo sapiens) (UniProt P31749); assay: Inhibition of AKT1 (unknown origin) at 10 uM
Sequence of RAC-alpha serine/threonine-protein kinase (Homo sapiens) (P31749 whole entry): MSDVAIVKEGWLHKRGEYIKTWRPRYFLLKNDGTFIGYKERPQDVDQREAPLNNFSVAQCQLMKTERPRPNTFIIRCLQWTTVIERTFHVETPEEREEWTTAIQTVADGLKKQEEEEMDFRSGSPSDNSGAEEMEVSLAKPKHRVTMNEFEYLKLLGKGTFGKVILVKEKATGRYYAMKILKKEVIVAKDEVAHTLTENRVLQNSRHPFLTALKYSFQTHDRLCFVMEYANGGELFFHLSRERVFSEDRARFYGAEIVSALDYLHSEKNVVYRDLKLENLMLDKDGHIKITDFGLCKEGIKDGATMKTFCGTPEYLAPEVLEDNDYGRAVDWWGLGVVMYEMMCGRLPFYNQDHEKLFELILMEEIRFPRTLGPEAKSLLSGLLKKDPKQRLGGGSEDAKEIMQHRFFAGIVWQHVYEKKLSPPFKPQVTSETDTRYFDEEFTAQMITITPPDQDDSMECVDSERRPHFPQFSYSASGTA

[14] = target: T3, Aurora kinase A (Homo sapiens) (UniProt O14965); assay: Inhibition of AurA (unknown origin) at 10 uM
T3 sequence (whole entry): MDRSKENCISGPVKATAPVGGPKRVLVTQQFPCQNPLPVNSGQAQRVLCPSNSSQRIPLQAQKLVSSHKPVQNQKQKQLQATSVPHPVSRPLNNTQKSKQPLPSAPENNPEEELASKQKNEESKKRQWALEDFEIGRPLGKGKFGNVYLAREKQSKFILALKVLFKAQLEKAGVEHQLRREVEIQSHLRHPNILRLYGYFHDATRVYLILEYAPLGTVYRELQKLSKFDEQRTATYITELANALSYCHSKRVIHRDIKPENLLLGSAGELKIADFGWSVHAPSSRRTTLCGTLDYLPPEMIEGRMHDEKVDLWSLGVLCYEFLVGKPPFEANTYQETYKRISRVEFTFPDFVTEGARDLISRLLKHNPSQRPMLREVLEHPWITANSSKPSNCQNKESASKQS

[15] = target: Serine/threonine-protein kinase B-raf (Homo sapiens) (UniProt P15056); assay: Inhibition of B-RAF (unknown origin) at 10 uM
[16] = target: CDK2/Cyclin A2 (Homo sapiens) (UniProt P24941+P20248); assay: Inhibition of CDK2/CyclinA (unknown origin) at 10 uM; type: protein-complex assay
[17] = target: Cyclin-dependent kinase 4/cyclin D1 (Homo sapiens) (UniProt P11802+P24385); assay: Inhibition of CDK4/cyclin D1 (unknown origin) at 10 uM; type: protein-complex assay
[18] = target: Receptor tyrosine-protein kinase erbB-2 (Homo sapiens) (UniProt P04626); assay: Inhibition of ERBB2 (unknown origin) at 1 uM
[19] = target: Fibroblast growth factor receptor 3 (Homo sapiens) (UniProt P22607); assay: Inhibition of FGFR3 (unknown origin) at 1 uM
[20] = target: Insulin receptor (Homo sapiens) (UniProt P06213); assay: Inhibition of INSR (unknown origin) at 1 uM
[21] = target: Serine/threonine-protein kinase PAK 1 (Homo sapiens) (UniProt Q13153); assay: Inhibition of PAK1 (unknown origin) at 1 uM
[22] = target: Proto-oncogene tyrosine-protein kinase receptor Ret (Homo sapiens) (UniProt P07949); assay: Inhibition of RET (unknown origin) at 1 uM

Row | SMILES | inhibition [1] [%] | inhibition [2] [%] | inhibition [3] [%] | inhibition [4] [%] | inhibition [5] [%] | inhibition [6] [%] | inhibition [7] [%] | inhibition [8] [%] | inhibition [9] [%] | inhibition [10] [%] | inhibition [11] [%] | Activity [12] [%] | inhibition [13] [%] | inhibition [14] [%] | inhibition [15] [%] | inhibition [16] [%] | inhibition [17] [%] | also measured
1 | CN(C)CCNc1ncc2cc(Oc3ccc(F)cc3F)c(=O)n(C)c2n1 | 3 | 5 | 51 | 8 | 3 | 5 | 1 | 0 | 1 | 0 | 1 | 110 | 5 | 7 | 9 | 13 | 17 | 
2 | Cn1c(=O)c(Oc2ccc(F)cc2F)cc2cnc(NCCc3ccccn3)nc21 | 14 | 6 | 95 | 19 | 6 | 15 | 3 | 0 | 11 | 0 | 3 | 96.4 | 6 | 4 | 35 | 6 | 17 | 
3 | CN1CCN(c2ccc(Nc3ncc4cc(Oc5ccc(F)cc5F)c(=O)n(C)c4n3)cc2)CC1 | 4 | 20 | 100 | 74 | 5 | 0 | -4 | 1 | 98 | 5 | 98 | 76.9 | 0 | 54 | 53 | 0 | 61 | 
4 | Cn1c(=O)c(Oc2c(Cl)cccc2Cl)cc2cnc(NC3CCOCC3)nc21 | 8 | 4 | 33 | 11 | 3 | 24 | 0 | 0 | 2 | 0 | 1 | 68 | 3 | 3 | 7 | 3 | 16 | 
5 | Cn1c(=O)c(Oc2ccc(F)cc2F)cc2cnc(Nc3ccc(N4CCCCC4)cc3)nc21 | 2 | 15 | 99 | 26 | 13 | 33 | 24 | 29 | 46 | 4 | 20 | 131 | 9 | 14 | 9 | 10 | 22 | 
6 | CN1CCN(c2ccc(Nc3ncc4cc(Oc5c(Cl)cccc5Cl)c(=O)n(C)c4n3)cc2)CC1 | 2 | 8 | 89 | 42 | 0 | 7 | 13 | 0 | 43 | 3 | 24 | 60.9 | 7 | 12 | 50 | 14 | 61 | 

Continued, in another order:

Row | inhibition [1] [%] | inhibition [2] [%] | inhibition [3] [%] | inhibition [4] [%] | inhibition [5] [%] | inhibition [6] [%] | inhibition [7] [%] | inhibition [8] [%] | inhibition [9] [%] | inhibition [10] [%] | inhibition [11] [%] | Activity [12] [%] | inhibition [13] [%] | inhibition [14] [%] | inhibition [15] [%] | inhibition [16] [%] | inhibition [17] [%] | SMILES | also measured
7 | 8 | 4 | 91 | 23 | 6 | 9 | 0 | 0 | 24 | 0 | 30 | 137 | 0 | 6 | 13 | 3 | 6 | CN1CCN(CCCNc2ncc3cc(Oc4ccc(F)cc4F)c(=O)n(C)c3n2)CC1 | 
8 | -1 | 34 | 100 | 78 | 16 | 22 | 22 | 33 | 100 | 10 | 100 | 57.5 | 11 | 66 | 61 | 11 | 30 | Cn1c(=O)c(Oc2ccc(F)cc2F)cc2cnc(Nc3ccc(N4CCC(O)CC4)cc3)nc21 | 
9 |  |  |  |  |  |  |  |  |  |  |  | 89.4 |  |  |  |  |  | Cn1c(=O)c(Oc2ccc(F)cc2F)cc2cnc(NC3CCN(S(N)(=O)=O)CC3)nc21 | inhibition [18]: 4%; inhibition [19]: 5%; inhibition [20]: 11%; inhibition [21]: 16%; inhibition [22]: 30%
10 | 4 | 5 | 84 | 0 | 4 | 19 | 5 | 0 | 0 | 2 | 24 | 87.1 | 0 | 32 | 49 | 23 | 62 | Cn1c(=O)c(Oc2ccc(F)cc2F)cc2cnc(NC3CCN(S(C)(=O)=O)CC3)nc21 | 

From ChEMBL document CHEMBL3745672, “Novel compounds reducing IRS-1 serine phosphorylation for treatment of diabetes” (Bioorg Med Chem Lett, 2016)
